Experiments:
[1] = Determination of suramin in plasma and brain tissue of mice after IP or IN administration; type: in vivo, male Fmr1-knockout B6.129P2-Fmr1tm1Cgr/J TG mice; settings: male, Fmr1-knockout B6.129P2-Fmr1tm1Cgr/J, mouse, Group 1: IP injection 20 mg/kg weekly for four weeks, read-out: Average Brain Tissue to Plasma Partitioning Ratio
Procedure: For the study, male Fmr1-knockout B6.129P2-Fmr1tm1Cgr/J TG mice were purchased from Jackson Laboratories, Bar Harbor, Me. These mice were of approximately 8 weeks of age.
Mice were accommodated to the research facility for approximately a week. Body weights of all mice were recorded for health monitoring purposes.
Blood samples were collected from all mice at the end of 12 weeks of age. Brain tissue was harvested from all mice upon sacrifice 13-14 weeks of age. Standard sample preparation and analytical techniques were used to obtain the data.
The data is presented as the average plasma concentration (in both ng/ml and μM) for each animal group the and average brain tissue concentration (in both ng/g and mmol/g). Also presented is the average brain tissue to plasma partition ratio for each group.

[2] = in vivo, cited from earlier work

Compound: Cc1ccc(C(=O)Nc2ccc(S(=O)(=O)O)c3cc(S(=O)(=O)O)cc(S(=O)(=O)O)c23)cc1NC(=O)c1cccc(NC(=O)Nc2cccc(C(=O)Nc3cc(C(=O)Nc4ccc(S(=O)(=O)O)c5cc(S(=O)(=O)O)cc(S(=O)(=O)O)c45)ccc3C)c2)c1 [suramin]
- Kp [1]: 0.03
- oral bioavailability ([2]; po): not orally bioavailable
- half-life [2]: 41 to 78 days
